Assay results published in the supplement of paper PMC11061612.

Columns and labels:
[1] = compound: C1CC(C1)(C(=O)[O-])C(=O)[O-].N.N.[Pt+2] [Carboplatin]; details: max 10 µM
Method in brief: (§1)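 In 1536-well plates, cancer cell lines in 7.5 μl DMEM/F12 or RPMI with 10% FBS spent 24 hours at 37°C and 5% CO2 and were then dosed for 72 hours with final DMSO typically 0.2%. Viability was read by CellTiter-Glo 2.0 luminescence and scaled between blank-well and DMSO-well means. The single-agent IC50 was fitted from dose responses using a logistic curve in a non-linear mixed effects model, and that logistic curve had two parameters.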

[2] = compound: C1CN(CCC1(C(=O)N[C@@H](CCO)C2=CC=C(C=C2)Cl)N)C3=NC=NC4=C3C=CN4 [AZD5363]; details: max 10 µM
Method in brief: as §1

[3] = compound: C=CCn1c(=O)c2cnc(Nc3ccc(N4CCN(C)CC4)cc3)nc2n1-c1cccc(C(C)(C)O)n1 [AZD1775]; details: max 3 µM
Method in brief: as §1

[4] = compound: CC(=O)Nc1cccc(-n2c(=O)n(C3CC3)c(=O)c3c(Nc4ccc(I)cc4F)n(C)c(=O)c(C)c32)c1 [Trametinib]; details: max 1 µM
Method in brief: as §1

[5] = compound: CC(=O)O[C@H]1C(=O)[C@@]2(C)[C@H]([C@H](OC(=O)c3ccccc3)[C@]3(O)C[C@H](OC(=O)[C@H](O)[C@@H](NC(=O)c4ccccc4)c4ccccc4)C(C)=C1C3(C)C)[C@]1(OC(C)=O)CO[C@@H]1C[C@@H]2O [Paclitaxel]; details: max 3 µM
Method in brief: as §1

[6] = compound: CC(=O)c1c(C)c2cnc(Nc3ccc(N4CCNCC4)cn3)nc2n(C2CCCC2)c1=O [Palbociclib]; details: max 10 µM
Method in brief: as §1

[7] = compound: CC(C)n1c(=O)n(C)c2cnc3cc(F)c(-c4ccc(OCCCN5CCCCC5)nc4)cc3c21 [AZD1390]; details: max 0.3 µM
Method in brief: as §1

[8] = compound: CC1(C)CCC(CN2CCN(c3ccc(C(=O)NS(=O)(=O)c4ccc(NCC5CCOCC5)c([N+](=O)[O-])c4)c(Oc4cnc5[nH]ccc5c4)c3)CC2)=C(c2ccc(Cl)cc2)C1 [Venetoclax]; details: max 1 µM
Method in brief: as §1

[9] = compound: CC1=C(C(=CC=C1)Cl)NC(=O)C2=CN=C(S2)NC3=CC(=NC(=N3)C)N4CCN(CC4)CCO [Dasatinib]; details: max 2 µM
Method in brief: as §1

[10] = compound: CC1=CN2[C@@H](C1)C=NC3=CC(=C(C=C3C2=O)OC)OCCCCCOC4=C(C=C5C(=C4)N=C[C@@H]6CC(=CN6C5=O)C)OC [SG3199]; details: max 0.001 µM
Method in brief: as §1

[11] = compound: CCN(CCO)CCCOc1ccc2c(Nc3cc(CC(=O)Nc4cccc(F)c4)[nH]n3)ncnc2c1 [AZD2811]; details: max 1 µM
Method in brief: as §1

[12] = compound: CCc1c2c(nc3ccc(O)cc13)-c1cc3c(c(=O)n1C2)COC(=O)[C@]3(O)CC [SN-38]; details: max 0.3 µM
Method in brief: as §1

[13] = compound: CN(C)CCCOc1ccc(-c2ccc3ncc4c(c3c2)n(C2CCOCC2)c(=O)n4C)cn1 [AZD0156]; details: max 3 µM
Method in brief: as §1

[14] = compound: CN(CC[C@H](CSC1=CC=CC=C1)NC2=C(C=C(C=C2)S(=O)(=O)NC(=O)C3=CC=C(C=C3)N4CCC(CC4)[C@H](C5=CC=CC=C5C6=CC=C(C=C6)Cl)O)S(=O)(=O)C(F)(F)F)CCO [AZD4320]; details: max 1 µM
Method in brief: as §1

[15] = compound: COc1cc(Nc2ncc3c(n2)-c2ccc(Cl)cc2C(c2c(F)cccc2OC)=NC3)ccc1C(=O)O [Alisertib]; details: max 10 µM
Method in brief: as §1

[16] = compound: COc1cc([C@@H]2c3cc4c(cc3[C@@H](O[C@@H]3O[C@@H]5CO[C@@H](C)O[C@H]5[C@H](O)[C@H]3O)[C@H]3COC(=O)[C@H]23)OCO4)cc(OC)c1O [Etoposide]; details: max 10 µM
Method in brief: as §1

[17] = compound: COc1cc2ncnc(Nc3ccc(F)c(Cl)c3)c2cc1OCCCN1CCOCC1 [Gefitinib]; details: max 10 µM
Method in brief: as §1

[18] = compound: COc1cccc(OCCCN)c1-c1cc(Nc2cnc(C#N)cn2)n[nH]1 [Prexasertib]; details: max 1 µM
Method in brief: as §1

[19] = compound: COc1cccc2c1C(=O)c1c(O)c3c(c(O)c1C2=O)C[C@@](O)(C(=O)CO)C[C@@H]3O[C@H]1C[C@H](N)[C@H](O)[C@H](C)O1 [Doxorubicin]; details: max 1 µM
Method in brief: as §1

[20] = compound: COc1nnc2ccc(N3CCC(c4ccc(OCCN5CCN(C)C(=O)[C@H]5C)cc4)CC3)nn12 [AZD5153]; details: max 1 µM
Method in brief: as §1

[21] = compound: CS(=O)(=O)CCNCc1ccc(-c2ccc3ncnc(Nc4ccc(OCc5cccc(F)c5)c(Cl)c4)c3c2)o1 [Lapatinib]; details: max 10 µM
Method in brief: as §1

[22] = compound: C[C@@H](Nc1cc(F)cc(F)c1)c1cc(C(=O)N(C)C)cc2c(=O)cc(N3CCOCC3)oc12 [AZD8186]; details: max 10 µM
Method in brief: as §1

[23] = compound: C[C@@H](Oc1cc(-c2cnn(C3CCNCC3)c2)cnc1N)c1c(Cl)ccc(F)c1Cl [Crizotinib]; details: max 10 µM
Method in brief: as §1

[24] = compound: C[C@@H](c1ccc2nccn2c1)n1nnc2ncc(-c3cnn(C)c3)nc21 [Savolitinib]; details: max 1 µM
Method in brief: as §1

[25] = compound: C[C@@H]1COCCN1C2=NC(=NC(=C2)C3(CC3)[S@](=N)(=O)C)C4=C5C=CNC5=NC=C4 [AZD6738]; details: max 10 µM
Method in brief: as §1

[26] = compound: Cc1c2c(nn1C)CSCc1cc(n(C)n1)CSc1cc(c3ccccc3c1)OCCCc1c(C(=O)O)n(C)c3c-2c(Cl)ccc13 [AZD5991]; details: max 1 µM
Method in brief: as §1

[27] = compound: Cc1cc2ncnn2cc1Nc1ncc2c(n1)n(C1CCOCC1)c(=O)n2C [AZD7648]; details: max 10 µM
Method in brief: as §1

[28] = compound: Cc1nc(-c2cn3c(n2)-c2ccc(-c4cnn(C(C)(C)C(N)=O)c4)cc2OCC3)n(C(C)C)n1 [Taselisib]; details: max 10 µM
Method in brief: as §1

[29] = compound: Cn1cnc2c(F)c(Nc3ccc(Br)cc3Cl)c(C(=O)NOCCO)cc21 [Selumetinib]; details: max 10 µM
Method in brief: as §1

[30] = compound: N#Cc1cnc(Nc2cc(NC[C@H]3CNCCO3)c(C(F)(F)F)cn2)cn1 [SRA737]; details: max 10 µM
Method in brief: as §1

[31] = compound: NC1(c2ccc(-c3nc4ccn5c(=O)[nH]nc5c4cc3-c3ccccc3)cc2)CCC1 [MK-2206]; details: max 10 µM
Method in brief: as §1

[32] = compound: Nc1ccn([C@@H]2O[C@H](CO)[C@@H](O)C2(F)F)c(=O)n1 [Gemcitabine]; details: max 0.3 µM
Method in brief: as §1

[33] = compound: O=C(Nc1ccc2[nH]nc(-c3ccncc3)c2c1)[C@@H]1CCN(CC(=O)N2CCN(c3ccc(-c4ncccn4)cc3)CC2)C1; details: max 5 µM
Method in brief: as §1

[34] = compound: O=C(c1cc(Cc2n[nH]c(=O)c3ccccc23)ccc1F)N1CCN(C(=O)C2CC2)CC1 [Olaparib]; details: max 10 µM
Method in brief: as §1

[35] = compound: O=c1[nH]cc(F)c(=O)[nH]1 [5-Fluorouracil]; details: max 20 µM
Method in brief: as §1

Cell Line | IC50, cell viability 72 h [1] [µM] | IC50, cell viability 72 h [2] [µM] | IC50, cell viability 72 h [3] [µM] | IC50, cell viability 72 h [4] [µM] | IC50, cell viability 72 h [5] [µM] | IC50, cell viability 72 h [6] [µM] | IC50, cell viability 72 h [7] [µM] | IC50, cell viability 72 h [8] [µM] | IC50, cell viability 72 h [9] [µM] | IC50, cell viability 72 h [10] [µM] | IC50, cell viability 72 h [11] [µM] | IC50, cell viability 72 h [12] [µM] | IC50, cell viability 72 h [13] [µM] | IC50, cell viability 72 h [14] [µM] | IC50, cell viability 72 h [15] [µM] | IC50, cell viability 72 h [16] [µM] | IC50, cell viability 72 h [17] [µM] | IC50, cell viability 72 h [18] [µM] | IC50, cell viability 72 h [19] [µM] | IC50, cell viability 72 h [20] [µM] | IC50, cell viability 72 h [21] [µM] | IC50, cell viability 72 h [22] [µM] | IC50, cell viability 72 h [23] [µM] | IC50, cell viability 72 h [24] [µM] | IC50, cell viability 72 h [25] [µM] | IC50, cell viability 72 h [26] [µM] | IC50, cell viability 72 h [27] [µM] | IC50, cell viability 72 h [28] [µM] | IC50, cell viability 72 h [29] [µM] | IC50, cell viability 72 h [30] [µM] | IC50, cell viability 72 h [31] [µM] | IC50, cell viability 72 h [32] [µM] | IC50, cell viability 72 h [33] [µM] | IC50, cell viability 72 h [34] [µM] | IC50, cell viability 72 h [35] [µM]
MRK-nu-1 (Breast Carcinoma) | > 10 | > 10 | 1.66 | > 1 | 0.00468 | > 10 | > 0.3 | > 1 | > 2 | > 0.001 | 0.816 | 0.0352 | > 3 | > 1 | 3.63 | 6.13 | > 10 | 0.22 | 0.629 | > 1 | > 10 | > 10 | > 10 | > 1 | 9.31 | 0.0467 | > 10 | > 10 | > 10 | > 10 | > 10 | 0.0957 | > 5 | > 10 | 18.4
BC-1 (B-Cell Non-Hodgkin's Lymphoma) | > 10 | 4.4 | 0.321 | > 1 | 0.0121 | 0.342 | > 0.3 | > 1 | > 2 | > 0.001 | 0.199 | 0.00532 | 2.42 | > 1 | 0.0653 | 0.77 | 9.56 | 0.013 | 0.05 | 0.0175 | 8.74 | > 10 | 1.69 | > 1 | 2.95 | 0.0872 | > 10 | > 10 | > 10 | 2.7 | 4.1 | 0.0154 | > 5 | > 10 | 17.2
